From US9428487B2, “Heteroaromatic amides and thioamides as pesticides” (Bayer Intellectual Property GmbH, priority 2008, dated 2016) come the findings set out here.

The nature of series [1]: Determination of log P values by HPLC on reversed-phase column (formic acid method). Particulars: reversed-phase C 18, acidic range (pH 3.4), formic acid eluents, 55° C.; for chromatographic logP: read-out: logP (HCOOH). The format is physicochemical. Here is the method: 1) Description of Method for Determining the Log P Values (Formic Acid Method)
The log P values reported in the table were determined according to EEC-Directive 79/831 Annex V.A8 by HPLC (High Performance Liquid Chromatography) on a reversed-phase column (C 18). […]
Eluent A: acetonitrile+1 ml of formic acid/liter. Eluent B: water+0.9 ml of formic acid/liter.
Gradient: from 10% eluent A/90% eluent B to 95% eluent A/5% eluent B in 4.25 min
The calibration was effected with unbranched alkan-2-ones (with 3 to 16 carbon atoms), whose log P values are known (determination of the log P values on the basis of the retention times by linear interpolation between two successive alkanones). The lambda-max values were determined with reference to the UV spectra from 200 nm to 400 nm in the maxima of the chromatographic signals.

Series [2] concerns green peach aphid (Myzus persicae). In words: Myzus test. Type of series: in vivo. Particulars: read-out: efficacy (aphids killed). Here is the method:
• Solvent: 78.0 parts by weight of acetone • 1.5 parts by weight of dimethylformamide • Emulsifier: 0.5 part by weight of alkylaryl polyglycol ether
To produce an appropriate active ingredient formulation, 1 part by weight of active ingredient is mixed with the amounts of solvent and emulsifier specified and the concentrate is diluted to the desired concentration with emulsifier-containing water.
Chinese cabbage leaf slices (Brassica pekinensis) infested by all stages of the green peach aphid (Myzus persicae) are sprayed with an active ingredient formulation of the desired concentration.
After the desired time, the efficacy in % is determined 100% means that all aphids have been killed; 0% means that no aphids have been killed.

Setting [3] is: reversed-phase HPLC column (C 18), pH 3.4, HPLC.
Setting [4] is: application rate 500 g/ha, spray on Chinese cabbage leaf slices.

Where two headings read alike, the source gives them in different places.

Take `CN(Cc1ccccn1)C(=O)c1cnc(-c2cccnc2)s1` [Compound 134]: in series [1] (setting [3]), the chromatographic logP came to 0.41. The pest or weed control at 500 g/ha in series [2] (setting [4]) is not below 70%.
The like results for `Cc1nc(-c2cccnc2)sc1C(=O)N(C)CC1CC1` [Compound 170] were, in that order, 1.68 and not below 70%.
On the same counts, the results for `COCN(CCF)C(=O)c1sc(-c2cccnc2)nc1C` [Compound 113] are 1.46 and not below 70%.
On the same counts, the results for `Cc1nc(-c2cccnc2)sc1C(=O)NCC(C)Cl` (stereo not drawn) [Compound 125] are 1.69 and not below 70%.
Regarding `Cc1nc(-c2cccnc2)sc1C(=O)NC(C)(C#N)C1CC1` (stereo not drawn) [Compound 94], the chromatographic logP in series [1] (setting [3]) turned out to be 1.76. Besides, the pest or weed control at 500 g/ha in series [2] (setting [4]) is not below 70%.
On the same counts, the results for `Cc1nc(-c2cccnc2)sc1C(=O)NC(C)C1=NOCCO1` (stereo not drawn) [Compound 49] are 1.27 and not below 70%.
On the same counts, the results for `CSCCN(C)C(=O)c1cnc(-c2cccnc2)s1` [Compound 148] are 1.38 and not below 70%.
On the same counts, the results for `O=C(NCc1ccccn1)c1cnc(-c2cccnc2)s1` [Compound 106] are 0.61 and not below 70%.
On to `CCON(C)C(=O)c1cnc(-c2cccnc2)s1` [Compound 173], for which the chromatographic logP in series [1] (setting [3]) was found to be 1.5. Moreover, in series [2] (setting [4]), the pest or weed control at 500 g/ha is not below 70%.
`Cc1nc(-c2cccnc2)sc1C(=O)NC1CC(C(F)(F)F)CC(C(F)(F)F)C1` (stereo not drawn) [Compound 152]: in series [1] (setting [3]), the chromatographic logP was found to be 2.95. The pest or weed control at 500 g/ha in series [2] (setting [4]) was not below 70%.
On the same counts, the results for `Cc1nc(-c2cccnc2)sc1C(=O)NC1(c2ccccn2)CC1` [Compound 167] are 0.97 and not below 70%.
On the same counts, the results for `Cn1nc(-c2cccnc2)cc1C(=O)NCc1ccon1` [Compound 29] are 0.56 and not below 70%.
The like results for `COC(=O)C(C)NC(=O)c1sc(-c2cccnc2)nc1C` (stereo not drawn) [Compound 84] were, in that order, 1.36 and not below 70%.
Turning to `CCOC(=O)c1cnc(-c2cccnc2)s1` [ethyl 2-pyridin-3-ylthiazole-5-carboxylate], in series [1] (setting [3]), the chromatographic logP is 1.93.
As for `COCN(Cc1ncccn1)C(=O)c1sc(-c2cccnc2)nc1C` [Compound 99], in series [1] (setting [3]), the chromatographic logP was 1.28. Besides, the pest or weed control at 500 g/ha in series [2] (setting [4]) is not below 70%.
On the same counts, the results for `Cc1nc(-c2cccnc2)sc1C(=O)NCC1CCCCO1` (stereo not drawn) [Compound 104] are 1.64 and not below 70%.
As to `Cc1nc(-c2cccnc2)sc1C(=O)NCCCl` [Compound 177], the chromatographic logP in series [1] (HPLC) amounted to 1.41. In series [2] (in Brassica rapa), the pest or weed control at 500 g/ha was not below 70%.
Consider `Cc1nc(-c2cncc(Cl)c2)sc1C(=O)N(C)CC(F)(F)F` [Preparation Example 2], for which the chromatographic logP in series [1] (setting [3]) came to 2.72.
Consider `Cc1nc(-c2cccnc2)sc1C(=O)NCC(F)(F)F` [Compound 39], for which the chromatographic logP in series [1] (setting [3]) was 1.63. Also, in series [2] (setting [4]), the pest or weed control at 500 g/ha was not below 70%.
Turning to `Cc1nc(CNC(=O)c2cc(-c3cccnc3)nn2C)no1` [Compound 26], the chromatographic logP in series [1] (setting [3]) turned out to be 0.54. For the same compound, the pest or weed control at 500 g/ha in series [2] (setting [4]) was not below 70%.
On the same counts, the results for `CSCC(C)(C)NC(=O)c1sc(-c2cccnc2)nc1C` [Compound 73] are 2.05 and not below 70%.
The like results for `CN(Cc1cccnc1)C(=O)c1cnc(-c2cccnc2)s1` [Compound 127] were, in that order, 0.98 and not below 70%.
The like results for `Cc1nc(-c2cccnc2)sc1C(=O)NCC(F)(F)C(F)(F)F` [Compound 189] were, in that order, 2.13 and not below 70%.
For `CC(c1ccccn1)N(C)C(=O)c1cnc(-c2cccnc2)s1` (stereo not drawn) [Compound 154], the chromatographic logP in series [1] (setting [3]) was determined as 1.21. Also, the pest or weed control at 500 g/ha in series [2] (setting [4]) is not below 70%.
The like results for `Cc1ccc(CNC(=O)c2cnc(-c3cccnc3)s2)o1` [Compound 186] were, in that order, 1.77 and not below 70%.
Take `Cc1nc(-c2cncnc2)sc1C(=O)NCC(F)(F)F` [Preparation Example 5]: the chromatographic logP in series [1] (setting [3]) came out at 1.61. Besides, in series [2] (setting [4]), the pest or weed control at 500 g/ha is not below 70%.
On the same counts, the results for `Cc1nc(-c2cccnc2)sc1C(=O)N(C)C(C)(C)C#N` [Compound 47] are 1.41 and not below 70%.
On the same counts, the results for `Cc1nc(-c2cncc(Br)c2)sc1C(=O)NCC(F)(F)F` [Compound 16] are 2.61 and not below 70%.
Consider `Cc1nc(-c2cccnc2)sc1C(=O)NCC(F)(F)Cl` [Preparation Example 1, N-(2-chloro-2,2-difluoroethyl)-4-methyl-2-pyridin-3-ylthiazole-5-carboxamide], for which, in series [1] (setting [3]), the chromatographic logP turned out to be 1.84. For the same compound, in series [2] (in Brassica rapa), the pest or weed control at 500 g/ha is not below 70%.
Take `Cn1nc(-c2cncc(F)c2)cc1C(=O)NCC(C)(F)F` [Compound 12]: the chromatographic logP in series [1] (setting [3]) stood at 1.89. For the same compound, in series [2] (setting [4]), the pest or weed control at 500 g/ha was not below 70%.
The like results for `Cc1nccc(CNC(=O)c2cnc(-c3cccnc3)s2)n1` [Compound 74] were, in that order, 0.94 and not below 70%.
On the same counts, the results for `CN(CCF)C(=O)c1cnc(-c2cccnc2)s1` [Compound 136] are 1.17 and not below 70%.
The like results for `CCC(=O)N(CC(F)(F)F)C(=O)c1sc(-c2cccnc2)nc1C` [Compound 89] were, in that order, 2.61 and not below 70%.
On to `Cc1nc(-c2cccnc2)sc1C(=O)N(C)CC(F)(F)C(F)F` [Compound 43], for which the chromatographic logP in series [1] (setting [3]) turned out to be 1.69. For the same compound, the pest or weed control at 500 g/ha in series [2] (setting [4]) is not below 70%.
On the same counts, the results for `O=C(NC(C(F)(F)F)C(F)(F)F)c1cnc(-c2cccnc2)s1` [Compound 171] are 2.3 and not below 70%.
The like results for `Cc1nc(-c2cccnc2)sc1C(=O)NCCF` [Compound 53] were, in that order, 1.11 and not below 70%.
On to `CSC[C@H](C)NC(=O)c1sc(-c2cccnc2)nc1C` [Compound 56], for which the chromatographic logP in series [1] (setting [3]) was found to be 1.68. The pest or weed control at 500 g/ha in series [2] (setting [4]) is not below 70%.
Turning to `CC#CCN(CC(F)(F)F)C(=O)c1sc(-c2cccnc2)nc1C` [Compound 139], in series [1] (setting [3]), the chromatographic logP was 2.47. Moreover, in series [2] (setting [4]), the pest or weed control at 500 g/ha was not below 70%.
In the case of `Cc1cc(C)nc(CNC(=O)c2cnc(-c3cccnc3)s2)n1` [Preparation Example 3], the chromatographic logP in series [1] (setting [3]) came out at 1.19. Further, in series [2] (in Brassica rapa), the pest or weed control at 500 g/ha was not below 70%.
`CON(C)C(=O)c1sc(-c2cccnc2)nc1C` [Compound 143]: the chromatographic logP in series [1] (setting [3]) was determined as 1.42. In addition, the pest or weed control at 500 g/ha in series [2] (setting [4]) was not below 70%.
On the same counts, the results for `Cc1nc(CNC(=O)c2sc(-c3cccnc3)nc2C)no1` [Compound 38] are 1.21 and not below 70%.
In the case of `CCN(OC)C(=O)c1cnc(-c2cccnc2)s1` [Compound 183], the chromatographic logP in series [1] (setting [3]) was 1.53. In addition, in series [2] (setting [4]), the pest or weed control at 500 g/ha was not below 70%.
On the same counts, the results for `CSCC(C)(C)N(C)C(=O)c1sc(-c2cccnc2)nc1C` [Compound 45] are 2.21 and not below 70%.
For the compound `Cc1nc(-c2cccnc2)sc1C(=O)NCC(C)F` (stereo not drawn) [Compound 76], the “logP (HCOOH)” value in series [1] (HPLC) is on record as 1.13.
The same measure, in the same setting: the value for `Cc1nc(-c2cccnc2)sc1C(=O)NC(C#N)C(C)C` (stereo not drawn) [Compound 64] was 1.57.
Take `CON(C)C(=O)c1cc(-c2cccnc2)nn1C` [Preparation Example 6]: the chromatographic logP in series [1] (setting [3]) was 0.49.
The same measure, in the same setting: the value for `O=C(O)c1cnc(-c2cccnc2)s1` [2-pyridin-3-ylthiazole-5-carboxylic acid] was 0.42.
For `Cc1nc(-c2cncc(I)c2)sc1C(=O)NCc1ncccn1` [Compound 18], in series [1] (setting [3]), the chromatographic logP is 1.87.
Same read-out and setting: the value for `Cc1nc(Cl)sc1C(=O)NCC(F)(F)F` was 1.97; that for `Cc1nc(-c2cncc(F)c2)sc1C(=O)N(C)C` [Compound 19] was 1.49.
The same measure, in the same setting: the value for `CCOC(=O)c1nnc(-c2cccnc2)s1` [ethyl 5-pyridin-3-yl[1,3,4]thiadiazole-2-carboxylate] was 1.41; that for `Cc1nc(-c2cncc(Cl)c2)sc1C(=O)N(C)C` [Compound 17] was 1.8.
Take `Cc1nc(-c2cncnc2)sc1C(=O)N(C)C` [Compound 23]: the chromatographic logP in series [1] (setting [3]) is 1.
Regarding `CSC[C@H](C)NC(=O)c1sc(-c2cccnc2)nc1C` [Compound 68], in series [1] (HPLC), the “logP (HCOOH)” value is listed as 1.65.
Take `Cc1nc(-c2cncc(I)c2)sc1C(=O)NCC(F)(F)F` [Compound 20]: the chromatographic logP in series [1] (setting [3]) is 2.75.
